Laboratory results reported in patent US20160340324A1, “METHODS AND COMPOSITIONS FOR TREATING CANCER” (Sanford-Burnham Medical Research Institute, priority 2013, published 2016).

Legend:
[1] = target: T1, RXRα (Homo sapiens, UniProt P19793); assay: CAT reporter assay with (TREpal)2-tk-CAT and RXRα transfected into CV-1 cells; type: cell-based; conditions: 9-cis-RA 10^-7 M, BI-1003 1 μM
T1 construct: expressed in transfected cells; host or cells: CV-1 African green monkey kidney cells
T1 sequence (P19793 1-462): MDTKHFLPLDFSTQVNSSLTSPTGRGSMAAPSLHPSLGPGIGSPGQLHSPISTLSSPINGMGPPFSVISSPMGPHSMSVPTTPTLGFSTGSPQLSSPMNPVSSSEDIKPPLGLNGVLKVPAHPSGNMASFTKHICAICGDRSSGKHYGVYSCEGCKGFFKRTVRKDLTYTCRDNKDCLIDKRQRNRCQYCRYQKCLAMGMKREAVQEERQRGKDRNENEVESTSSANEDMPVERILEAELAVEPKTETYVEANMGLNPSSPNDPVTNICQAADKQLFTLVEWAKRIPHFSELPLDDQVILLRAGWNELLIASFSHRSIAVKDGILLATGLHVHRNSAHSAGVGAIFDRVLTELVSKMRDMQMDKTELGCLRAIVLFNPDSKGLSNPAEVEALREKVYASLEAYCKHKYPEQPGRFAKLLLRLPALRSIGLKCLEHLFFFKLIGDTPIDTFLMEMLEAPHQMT
Method: FIGS. 2A and 2B are graphs of relative CAT activity. (TREpal)2-tk-CAT and RXRα were transiently transfected into CV-1 cells. […] CAT activity was determined. […] Error bars represent SEM. FIG. 2C is a graph of relative LUC activity. pBind-RXRα-LBD and pG5luc were transiently transfected into HCT-116 cells. […] Luciferase activity was determined.

[2] = target: T2, RXRα-LBD (Homo sapiens, UniProt P19793); assay: Mammalian one hybrid: Gal4-RXRα-LBD chimera (pBind-RXRα-LBD) and pG5luc reporter in HCT-116 cells; type: cell-based; conditions: 9-cis-RA 10^-7 M, BI-1003 1 μM, K-8008 and K-8012 50 μM
T2 construct: expressed in transfected cells; host or cells: HCT-116
T2 sequence (P19793 227-458 limits assumed): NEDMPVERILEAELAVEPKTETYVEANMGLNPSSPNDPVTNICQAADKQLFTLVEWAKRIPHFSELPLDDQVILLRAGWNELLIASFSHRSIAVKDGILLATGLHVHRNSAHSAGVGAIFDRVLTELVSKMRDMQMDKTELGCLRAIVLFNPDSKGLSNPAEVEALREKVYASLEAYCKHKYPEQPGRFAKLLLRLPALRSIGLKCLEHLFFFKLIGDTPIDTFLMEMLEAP
Method: FIGS. 2A and 2B are graphs of relative CAT activity. (TREpal)2-tk-CAT and RXRα were transiently transfected into CV-1 cells. […] CAT activity was determined. […] Error bars represent SEM. FIG. 2C is a graph of relative LUC activity. pBind-RXRα-LBD and pG5luc were transiently transfected into HCT-116 cells. […] Luciferase activity was determined. […] HCT-116 cells seeded in 24-well plates were transiently transfected with 50 ng pG5luc, 25 ng pBind-RXRα-LBD. […] Cells were washed, lysed and assayed by using the Dual-Luciferase Reporter Assay System (Promega). Transfection efficiency was normalized to Renilla luciferase activity.

[3] = test system: A549 cells; assay: PARP cleavage (apoptosis) with or without TNFα, immunoblotting; type: cell-based, human; conditions: 4 h; for PARP cleavage, combination with TNFα: 40 μM compound plus TNFα 10 ng/mL
[4] = test system: A549 lung cancer, PC3 prostate cancer, ZR-75-1 and MB231 breast cancer cells; assay: MTT cell viability / growth inhibition assay; type: cell-based, human; conditions: 48 h
Method: (§1) Cell viability was measured by the MTT colorimetric assay. FIG. 3B depicts inhibition of TNFα-induced AKT activation. […] Phosphorylated AKT and total AKT were analyzed by immunoblotting.
FIGS. 8A-C are a series of graphs depicting that sulindac and other compounds induce apoptosis of cancer cells. FIG. 8A is a PC3 prostate cancer cell line. FIG. 8B is a ZR-75-1 breast cancer cell line, and FIG. 8C is a MDA-MB-231 breast cancer cell line. Each were treated with the indicated concentration of Sulindac or other compounds for 48 h. Cell viability was determined by the MTT assay.
Confluent cells cultured in 96-well dishes were treated with various concentrations of compounds for 48 h. The cells were then incubated with 2 mg/mL (3-(4,5-Dimethylthiazol-2-yl)-2,5-diphenyltetrazolium bromide (MTT) for 4 h at 37° C. MTT solution was then aspirated and formazan in cells was instantly dissolved by addition of 150 μL DMSO each well. Absorbance was measured at 570 nm.

[5] = test system: HepG2 tumor xenografts; assay: HepG2 tumor xenografts in nude mice; type: in vivo; conditions: for apparent toxic effects such as loss of body weight: 20 mg/kg daily for 12 days, body weight every 3 days; for reduction of tumor weight: 20 mg/kg intraperitoneally once a day, 12-day treatment
Method: FIGS. 4A-4F depict inhibition of HepG2 tumor growth in animals. FIG. 4A is a photograph of tumors. FIG. 4B is a graph of tumor volume. FIG. 4C is a graph of tumor weight. […] Tumors were removed and measured. Tumor sizes and weights in control, K-80003 and K-8008-treated mice were compared. FIG. 4D is a Western blot. Lysates prepared from three tumors treated with vehicle or K-8008 were analyzed by Western blotting assay for p-AKT expression. FIG. 4E is a series of photomicrographs. H&E staining and TUNEL assay. Tumor sections were stained for H&E or TUNEL by immunohistochemistry. […]. FIG. 4F is a graph of body weight. […]. Body weight was measured every three days. Each point represents the mean±standard deviation of six mice. The differences between the compound treated group and control group are not significant (P>5%).
[…]. Nude mice (BALB/c, SPF grade. 16-18 g, 4-5-week old) were housed at 28° C. in a laminar flow under sterilized conditions. Mice were injected subcutaneously with 100 μL HepG2 cells ([…]). […]. Body weight and tumor size were measured every 3 days. Mice were sacrificed after 12-day drug treatment and the tumors removed for various assessments.
Paraffin wax embedded tumors were cut into 5 |iM-thick sections. These sections were deparaffinized and stained with hematoxylin and eosin (H&E) according to the standard protocol. Tumor sections of HepG2 xenografts were also stained with TUNEL for assessing spontaneous apoptosis according to the manufacturer's instructions (In situ Cell Death Detection Kit; Roche). The images were taken under a fluorescent microscope (Carl Zeiss).

[6] = test system: TNFα-induced AKT activation in A549 lung cancer cells; assay: Inhibition of TNFα-induced AKT activation, immunoblotting; type: cell-based, human; conditions: pretreated 1 h, TNFα 10 ng/mL 30 min
Method: as §1
ZR-75-1 and MB231 breast cancer cells (FIG. 8). A unique property of Sulindac and other compounds are their ability to inhibit TNFα-induced AKT activation (Zhou et al, 2010). […] Similar results were obtained in other cancer cell lines (FIG. 9).
Cells were lysed and equal amounts of the lysates were electrophoresed on 10% SDS-PAGE gels and transferred onto PVDF membranes (Millipore). The membranes were blocked with 5% skimmed milk in TBST [50 mM Tris-HCl (pH7.4), 150 mM NaCl and 0.1% Tween20] for 1 h, then incubated with primary antibodies and secondary antibodies and detected using ECL system (Thermo). The dilutions of the primary antibodies were anti-RXRα (AN 197, Santa Cruz) in 1:1000, anti-PARP(H-250. Santa Cruz) in 1:3000, anti-p85α (Millipore) in 1:1000, anti-p-AKT (D9E, Cell Signaling Technology) in 1:1000, anti-AKT 1/2/3 (H-136, Santa Cruz) in 1:1000, anti-β-actin (Sigma) in 1:5000, anti-c-myc (9E10, Santa Cruz), anti-Flag (FI 804, Sigma).

[7] = target: T3, human RXRα-LBD (Homo sapiens, UniProt P19793); assay: Ligand-binding competition assay with [3H]9-cis-RA; conditions: [3H]-9-cis-RA 7.5 nM
T3 sequence (P19793 223-462): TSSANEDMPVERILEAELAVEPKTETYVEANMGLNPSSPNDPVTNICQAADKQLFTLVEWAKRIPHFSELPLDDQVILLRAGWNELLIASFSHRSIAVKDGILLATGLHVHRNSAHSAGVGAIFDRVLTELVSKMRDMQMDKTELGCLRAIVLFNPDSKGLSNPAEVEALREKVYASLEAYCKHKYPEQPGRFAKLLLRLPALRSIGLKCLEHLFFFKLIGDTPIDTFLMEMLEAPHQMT

[8] = test system: cancer cells; conditions: literature (Weggen 2001; Yamamoto 1999; Zhang 2000); cited from earlier work

## CCCOc1cc2c(cc1C(=C1CC1)c1ccc(C(=O)O)cc1)C(C)(C)CCC2(C)C [BI-1003]
[1]
  inhibition of 9-cis-RA-induced TREpal reporter activity: inhibited
[2]
  inhibition of 9-cis-RA-induced Ga14 reporter activation: inhibited

## CC1=C(CCc2nnn[nH]2)c2ccccc2/C1=C\c1ccc(C(C)C)cc1 [Compound K-8008, (Z)-5-(2-(1-(4-iso-Propylbenzylidene)-2-methyl-1H-inden-3-yl)ethyl)-1H-tetrazole]
[3]
  PARP cleavage, combination with TNFα: could convert TNFα signaling from survival to death
[4]
  inhibition of growth of cancer cells compared to Sulindac: much more effective
[5]; 20 mg/kg
  apoptosis in tumor sections, TUNEL staining: induction of apoptosis
[5]
  apparent toxic effects such as loss of body weight: did not show any apparent toxic effects
  reduction of tumor weight: 61.23%
[5]; 20 mg/kg intraperitoneally daily
  growth of HepG2 tumor: inhibited the growth of HepG2 tumor in a time dependent manner
[5]; three tumors, 20 mg/kg
  AKT activation (p-AKT) in tumors, Western blotting: reduction of AKT activation
[6]
  TNFα-induced AKT activation: suppressed in a dose dependent manner

## CC1=C(CCc2nnn[nH]2)c2cc(F)ccc2/C1=C\c1ccc(C(C)C)cc1 [Compound K-8012, (Z)-5-(2-(5-Fluoro-1-(4-isopropylbenzylidene)-2-methyl-1H-inden-3-yl)ethyl)-1H-tetrazole]
[3]
  PARP cleavage, combination with TNFα: could convert TNFα signaling from survival to death
[4]
  inhibition of growth of cancer cells compared to Sulindac: much more effective
[6]
  TNFα-induced AKT activation: suppressed in a dose dependent manner

## CC1=C(CC(=O)O)c2cc(F)ccc2/C1=C\c1ccc(C(C)C)cc1 [Compound K-80003, reference compound]
[7]
  competition with [3H]9-cis-RA for binding to the LBP of RXRα: competed well
[5]
  apparent toxic effects such as loss of body weight: did not show any apparent toxic effects
  reduction of tumor weight: 54.84%

## CC1=C(CC(=O)O)c2cc(F)ccc2/C1=C\c1ccc([S+](C)[O-])cc1 (stereo not shown) [Sulindac, reference compound]
[3]
  PARP cleavage, combination with TNFα: significant induction of PARP cleavage
[3]; 40 μM, 1% FBS
  PARP cleavage, compound alone: slightly induced PARP cleavage
[8]
  concentration normally used to achieve anti-cancer effects: About 100 μM
